Measurements published in US12318365B2, “Inhibition of dipeptide repeat proteins” (ALS Therapy Development Institute, priority 2019, dated 2025).
No end group written: not given here.

How the values were obtained:
[1] = system: asymmetrical arginine methylation of NSC-34 cells; experiment: Cellular asymmetric arginine methylation (800/700 fluorescence readout) in NSC-34 cells; type: cell-based, Mouse
Procedure: On Day 0, NSC-34 Cells were plated in 48 wells of a 96 well plate, and CHO cells were plated in the other 48 wells of the same 96-well plate. NSC-34 cells were plated in DMEM/High glucose media. CHO cells were plated in Ham's F-12K (Kaighn's) Medium. Both cell lines were incubated overnight to reach approximately 50% confluency.
On Day 1, 24 wells of the NSC-34 cells and 24 wells of the CHO cells were treated with the following concentrations of MS023: 1 μM, 3 μM, 6 μM, 10 μM, 30 μM, and 60 μM. The cells were then incubated overnight.
On Day 2, 18 wells of the untreated NSC-34 cells and 18 wells of the untreated CHO cells were treated with the same concentrations of MS023 as those on Day 1. This left 6 wells of each cell line that never received MS023. Once MS023 was added, the cells were incubated overnight.
On Day 3, all media in the 96-well plate was removed and the cells were fixed with 3.7% Paraformaldehyde (PFA). Cells were then washed and permeabilized with 1×PBS/0.1% Triton X-100.
After removing the PBS/Triton wash, Odyssey Blocking Buffer (LI-COR, 927-40100) was applied to all wells and the plate sat at room temperature with moderate shaking for 90 minutes. After 90 minutes, the blocking buffer was removed and the cells were treated with a 1:500 dilution of the Anti-Asymmetric Di-Methyl Arginine Motif primary antibody (Cell Signaling Technology, #13522). Incubation with the primary antibody continued overnight at 4 degrees Celsius with no shaking.
On Day 4, the primary antibody solution was removed from the plate, and the cells were washed with 1×PBS/0.1% Tween 20. After washing, cells were given a secondary antibody mixture containing a 1:1000 dilution of IRDye 800 CW Anti-Rabbit antibody (LI-COR, 926-32211) and a 1:500 dilution of Cell Tag 700 Stain (LI-COR, 926-41090). The secondary antibody mixture remained on cells for 60 minutes with gentle shaking and protected from light.
(§1) After 60 minutes, the secondary antibody mixture was removed and the cells were again washed with 1×PBS/0.1% Tween 20. All wash buffer was then removed, and the plate was gently patted dry to remove excess solution. The plate was then read on the LI-COR Odyssey Classic Imaging System which provides results based on fluorescence. In this experiment, fluorescence occurred as a result of cellular, asymmetric arginine methylation. MS023 was given to cells for either 24 or 48 hours, with expectation for it to reduce cellular, asymmetric arginine methylation. Cell number per well was accounted for using the Cell Tag 700 Stain, which fluorescently labels total protein levels in a cell. To this effect, fluorescence from asymmetrical arginine methylation per well (800) was divided by fluorescence from the total protein level per well (700) to produce an outcome of 800/700.
On Day 1, 24 wells of the NSC-34 cells and 24 wells of the CHO cells were treated with the following concentrations of MS049: 0.2 μM, 1 μM, 2 μM, 10 μM, 20 μM, and 100 μM. The cells were then incubated overnight.
On Day 2, 18 wells of the untreated NSC-34 cells and 18 wells of the untreated CHO cells were treated with the same concentrations of MS049 as those on Day 1. This left 6 wells of each cell line that never received MS049. Once MS049 was added, the cells were incubated overnight.
as §1, with “MS049” for “MS023”, “To this effect, fluorescence from asymmetrical arginine methylation per well (800) was divided by fluorescence from the total protein level per well (700) to produce an outcome of 800/700.” left out

[2] = biological target: T1, Recombinant PRMT1 protein (Homo sapiens, UniProt Q99873); experiment: In-vitro arginine methylation assay with recombinant PRMT1 and SAM; type: biochemical; details: 37 degrees Celsius, 2 hours, no methylation without PRMT1 or SAM
T1 construct: purchased Active Motif 31411
T1 sequence (Q99873 whole entry): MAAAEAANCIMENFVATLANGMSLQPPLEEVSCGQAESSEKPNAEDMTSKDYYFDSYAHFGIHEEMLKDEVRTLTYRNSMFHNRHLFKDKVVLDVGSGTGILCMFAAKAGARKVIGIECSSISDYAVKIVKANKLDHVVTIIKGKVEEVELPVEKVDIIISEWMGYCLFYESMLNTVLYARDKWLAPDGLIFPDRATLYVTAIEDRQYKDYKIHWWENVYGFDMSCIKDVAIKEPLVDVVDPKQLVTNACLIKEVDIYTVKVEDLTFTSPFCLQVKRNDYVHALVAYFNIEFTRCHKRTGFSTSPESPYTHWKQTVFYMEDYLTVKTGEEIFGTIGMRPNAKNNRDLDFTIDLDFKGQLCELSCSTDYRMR
Procedure: To assess interaction between PRMT1 and GR15, (SEQ ID NO: 1) an in-vitro methylation assay system was developed. This system consists of a mixture of recombinant PRMT1 enzyme, S-(5′-Adenosyl)-L-methionine iodide, (SAM) as a methyl donor, and potential substrate of PRMT1 activity. For this experiment, 11 tubes were prepared, each containing various amount of the following components; • Recombinant PRMT1 protein (Active Motif, Cat. 31411) • S-(5′-Adenosyl)-L-methionine iodide, (SAM) (Sigma-Aldrich Cat. A4377) • GR15(SEQ ID NO: 1) • PR15(SEQ ID NO: 2) • SOD1 from human erythrocytes (S9636-1KU)
These constituents were mixed in a 0.5 ml flat-capped tubes (Thermo Fisher Scientific, AB0350) according to Table 4 (all values are in microliters (μl)).
Once all tubes were prepared, each tube was gently tapped to ensure mixture, and the tubes were placed in an incubator at 37 degrees Celsius for 2 hours. After 2 hours, the reaction mixture was stopped with the addition of 10 μl of NuPage LDS Sample Buffer (Thermo Fisher Scientific, NP0007). The tubes were gently tapped to ensure mixture, and then boiled for 5 minutes in a 95 degrees Celsius water bath. […]
The gel was then transferred using the iBlot apparatus and an iBlot 2 Nitrocellulose Mini Stack (Thermo Fisher Scientific, IB23002). […] Following wash steps, the membrane was read on the LI-COR Odyssey Classic Imaging System.

Which results are given for CC(C)Oc1ccc(-c2c[nH]cc2CN(C)CCN)cc1 [MS023]?
decrease of asymmetrical arginine methylation ([1]; 24 hour treatment, 1 μM, vs untreated cells): approximately 13%; decrease of asymmetrical arginine methylation ([1]; 24 hour treatment, 60 μM): ~45%; decrease of asymmetrical arginine methylation ([1]; 48 hour treatment, 1 μM): ~33%; decrease of asymmetrical arginine methylation ([1]; 48 hour treatment, 60 μM): ~75%

With GRGRGRGRGRGRGRGRGRGRGRGRGRGRGR [GR15] as the compound, how does the “asymmetric methylation of the peptide as substrate (anti-H4R3me2a detection)” value [2] read?
The value was “is asymmetrically methylated by PRMT1”.
